In the CheMixHub viscosity set:
Values joined by “and” are separate entries in the source; they are usually repeats but may differ in a detail not shown here. Equal entries are not always repeated.

Assay: xn = mol fraction of the nth substance listed

NCC(=O)O + O
viscosity
Details	101 kPa	101.33 kPa
293.15 K, x1 = 0.0194	1.181 mPa·s	–
293.15 K, x1 = 0.0294	1.272 mPa·s	–
293.15 K, x1 = 0.036	1.332 mPa·s	–
298.15 K, x1 = 0.0002174	0.8944 mPa·s and 0.8944 mPa·s	–
298.15 K, x1 = 0.0004	0.894 mPa·s	–
298.15 K, x1 = 0.0007	0.8972 mPa·s	–
298.15 K, x1 = 0.0009	0.8942 mPa·s	–
298.15 K, x1 = 0.0009413	0.9111 mPa·s and 0.9111 mPa·s	–
298.15 K, x1 = 0.00135	0.8968 mPa·s	–
298.15 K, x1 = 0.0018	0.8995 mPa·s	–
298.15 K, x1 = 0.002695	0.9053 mPa·s	–
298.15 K, x1 = 0.003657	0.9319 mPa·s and 0.9319 mPa·s	–
298.15 K, x1 = 0.005496	0.932 mPa·s and 0.932 mPa·s	–
298.15 K, x1 = 0.008976	0.9754 mPa·s and 0.9754 mPa·s	–
298.15 K, x1 = 0.0108	0.9757 mPa·s and 0.9757 mPa·s	–
298.15 K, x1 = 0.01215	0.9853 mPa·s and 0.9853 mPa·s	–
298.15 K, x1 = 0.01456	0.986 mPa·s and 0.986 mPa·s	–
303.15 K, x1 = 0.0003	0.803 mPa·s	–
303.15 K, x1 = 0.0004	0.8014 mPa·s	–
303.15 K, x1 = 0.0007	0.8046 mPa·s	–
303.15 K, x1 = 0.0009	0.801 mPa·s	–
303.15 K, x1 = 0.00135	0.8035 mPa·s	–
303.15 K, x1 = 0.0018	0.8126 mPa·s	–
303.15 K, x1 = 0.002	0.816 mPa·s	–
303.15 K, x1 = 0.0022	0.8155 mPa·s	–
303.15 K, x1 = 0.002695	0.8117 mPa·s	–
303.15 K, x1 = 0.0029	0.8217 mPa·s	–
303.15 K, x1 = 0.003592	0.8207 mPa·s	–
303.15 K, x1 = 0.0063	0.8489 mPa·s	–
303.15 K, x1 = 0.0107	0.8659 mPa·s	–
303.15 K, x1 = 0.01246	0.8788 mPa·s	–
303.15 K, x1 = 0.0129	0.8994 mPa·s	–
303.15 K, x1 = 0.0194	0.9492 mPa·s	–
303.15 K, x1 = 0.0294	1.026 mPa·s	–
303.15 K, x1 = 0.036	1.076 mPa·s	–
308.15 K, x1 = 0.00135	0.7251 mPa·s	–
308.15 K, x1 = 0.0018	0.7276 mPa·s and 0.7355 mPa·s	0.7365 mPa·s
308.15 K, x1 = 0.0022	0.7378 mPa·s	–
308.15 K, x1 = 0.0025	0.7407 mPa·s	–
308.15 K, x1 = 0.0029	0.7439 mPa·s	–
308.15 K, x1 = 0.003657	0.7609 mPa·s and 0.7609 mPa·s	–
308.15 K, x1 = 0.005496	0.7659 mPa·s and 0.7659 mPa·s	–
308.15 K, x1 = 0.007374	0.7773 mPa·s and 0.7773 mPa·s	–
308.15 K, x1 = 0.0108	0.8059 mPa·s and 0.8059 mPa·s	–
308.15 K, x1 = 0.01215	0.806 mPa·s and 0.806 mPa·s	–
308.15 K, x1 = 0.01456	0.8089 mPa·s and 0.8089 mPa·s	–
313.15 K, x1 = 0.001	0.664 mPa·s and 0.6667 mPa·s	–
313.15 K, x1 = 0.00135	0.6585 mPa·s	–
313.15 K, x1 = 0.002	0.667 mPa·s	–
313.15 K, x1 = 0.0022	0.6712 mPa·s	–
313.15 K, x1 = 0.0025	0.6739 mPa·s	–
313.15 K, x1 = 0.005375	0.6819 mPa·s	–
313.15 K, x1 = 0.0129	0.727 mPa·s	–
313.15 K, x1 = 0.0194	0.7628 mPa·s	–
313.15 K, x1 = 0.0294	0.8179 mPa·s	–
313.15 K, x1 = 0.036	0.8542 mPa·s	–
318.15 K, x1 = 0.0002174	0.6164 mPa·s and 0.6164 mPa·s	–
318.15 K, x1 = 0.0009	0.6007 mPa·s	–
318.15 K, x1 = 0.0018	0.6052 mPa·s	–
318.15 K, x1 = 0.001865	0.6321 mPa·s	–
318.15 K, x1 = 0.002245	0.6076 mPa·s	–
318.15 K, x1 = 0.002695	0.6099 mPa·s	–
318.15 K, x1 = 0.005496	0.6417 mPa·s	–
318.15 K, x1 = 0.007374	0.6579 mPa·s and 0.6579 mPa·s	–
318.15 K, x1 = 0.008976	0.6725 mPa·s and 0.6725 mPa·s	–
318.15 K, x1 = 0.0108	0.6756 mPa·s and 0.6756 mPa·s	–
318.15 K, x1 = 0.01215	0.6757 mPa·s and 0.6757 mPa·s	–
318.15 K, x1 = 0.01456	0.6821 mPa·s and 0.6821 mPa·s	–
323.15 K, x1 = 0.0003	0.5508 mPa·s	–
323.15 K, x1 = 0.002	0.5589 mPa·s	–
323.15 K, x1 = 0.008932	0.5878 mPa·s	–
323.15 K, x1 = 0.01246	0.6035 mPa·s	–
323.15 K, x1 = 0.0194	0.6412 mPa·s	–
323.15 K, x1 = 0.0294	0.6885 mPa·s	–
323.15 K, x1 = 0.036	0.7197 mPa·s	–

CCCCCCCC + CO
298.15 K, 101.33 kPa
Details	viscosity [mPa·s]
x1 = 0.0147	0.553
x2 = 0.0367	0.536
x2 = 0.0682	0.547
x2 = 0.0725	0.548
x2 = 0.0933	0.555
x2 = 0.1159	0.563
x2 = 0.9531	0.556
x2 = 0.9687	0.554

ClC(Cl)=C(Cl)Cl + C1CCCCC1
303.15 K, 101 kPa
Details	viscosity [mPa·s]
x1 = 0.1695	0.762
x1 = 0.2317	0.777
x1 = 0.2698	0.75
x1 = 0.3794	0.742
x1 = 0.4194	0.74
x1 = 0.4306	0.75
x1 = 0.4966	0.738
x1 = 0.5117	0.751
x1 = 0.5532	0.741
x1 = 0.5969	0.751
x1 = 0.6182	0.746
x1 = 0.6612	0.758
x1 = 0.7242	0.764
x1 = 0.7644	0.771
x1 = 0.8345	0.775
x1 = 0.8383	0.781
x1 = 0.9204	0.8

O=[N+]([O-])c1ccccc1 + CC(C)O
viscosity [mPa·s]
Details	293.15 K	298.15 K	303.15 K	308.15 K	313.15 K	318.15 K	323.15 K
100 kPa, x1 = 0.081	2.112	1.849	1.625	1.428	1.247	1.101	0.9776
100 kPa, x1 = 0.16	1.892	1.679	1.494	1.333	1.166	1.039	0.9339
100 kPa, x1 = 0.2401	1.742	1.56	1.402	1.264	1.111	1.003	0.9084
100 kPa, x1 = 0.3501	1.624	1.468	1.332	1.212	1.082	0.9879	0.9036
100 kPa, x1 = 0.44	1.597	1.446	1.318	1.203	1.088	1.002	0.9207
100 kPa, x1 = 0.56	1.637	1.482	1.347	1.232	1.134	1.05	0.9715
100 kPa, x1 = 0.6499	1.703	1.54	1.401	1.281	1.187	1.105	1.024
100 kPa, x1 = 0.7399	1.795	1.622	1.475	1.349	1.256	1.171	1.087
100 kPa, x1 = 0.85	1.92	1.739	1.586	1.454	1.355	1.262	1.174
100 kPa, x1 = 0.9399	2.022	1.842	1.685	1.55	1.442	1.342	1.25
101.33 kPa, x1 = 0.0512	–	1.881	1.567	–	–	–	–
101.33 kPa, x1 = 0.1088	–	1.67	1.476	–	–	–	–
101.33 kPa, x1 = 0.1732	–	1.529	1.344	–	–	–	–
101.33 kPa, x1 = 0.2456	–	1.462	1.297	–	–	–	–
101.33 kPa, x1 = 0.3281	–	1.459	1.277	–	–	–	–
101.33 kPa, x1 = 0.4228	–	1.45	1.292	–	–	–	–
101.33 kPa, x1 = 0.5325	–	1.439	1.323	–	–	–	–
101.33 kPa, x1 = 0.661	–	1.523	1.398	–	–	–	–
101.33 kPa, x1 = 0.8145	–	1.603	1.434	–	–	–	–
